The values below come from US9353156B2, “Oligopeptide compounds and uses thereof” (Cytovation AS, priority 2010, dated 2016).

The subject of data set [1] is 142 cells, HFF1 cells, 143 carcinoma cells, HOS sarcoma cell line (FIG. 5). The data set can be described thus: LIVE/DEAD kit, fluorescence microscopy of monolayers (FIG. 5, text). It is filed as cell-based. The following applies: 10 μg/ml of peptide. The text has this:
The LIVE/DEAD® Viability/Cytotoxicity kit employs a fluorescent dye to assess mammalian cell viability. Calcein AM and ethidium homodimer-1 (EthD-1) are found to be optimal dyes for this purpose. […] cells are distinguished from dead cells by the presence of intracellular esterase activity, determined by enzymatic conversion of non-fluorescen calcein AM to intensely fluorescent calcein. Calcein, which is a polyanionic dye, is well retained inside living cells producing an intense uniform green fluorescence. EthD-1 is excluded by intact membranes of viable cells, but it will enter cells with damaged cell membrane and bind to nucleic acids, producing a bright red fluorescence in dead cells. The protocol for using the live/dead kit is supplied by the manufacturer.
To quantify the cytotoxic action of Peptide 1, 20 000 cells were placed in 24 well multiwell dishes. […] After 1-3-6 hrs the cellular viability was assessed using the Molecular Probes LIVE/DEAD kit. […]
The cells were then observed using an inverted fluorescence microscope (Nikon Eclipse 2000E, Tokyo, Japan) equipped with FITC (green fluorescence) and TRITC (red fluorescence) filter optics. […] The proportion of viable cells (cells with green fluorescence) and the proportion of dead cells (red fluorescence) where then assessed by counting 100 cells. […]

Data set [2] concerns normal human forskin fibroblasts (HFF1). The following applies: 20 μg/ml, exposure for 90 minutes.
Description: MTT is a yellowish solution and is converted to water-insoluble MTT-formazan of dark blue colour by mitochondrial dehydrogenases of living cells. The blue crystals are solubilized with acidifies isopropanol and the intensity is measured colorimetrically at a wavelength of 570 nm (protocol for the MTT assay was used according to the manufacturer's instructions). Using a MTT cell viability assay, a comparison was made between normal human forskin fibroblasts (HFF1) and three cancer cell lines T986 (neuroblastoma cells), GaMG (glioblastoma), and A172 (glioblastoma).

As to “Ac-YGRKKRRQRRRGKTLRVAKAIYKRYIE-NH2 [Peptide 1]”, the “cytotoxic action (red cells)” value in data set [1] is “slight cytotoxic action”. In addition, the surviving fraction in data set [2] came out at 58%.
